Measured values from patent US6998143B1, “Ferric fortification system” (Nestec S.A., priority 1999, dated 2006).

Experiments:
[1] = Lipid oxidation induction time in fish oil (Rancimat); format: physicochemical; conditions: fish oil in place of chicken fat, 100° C.
Experimental: The powder of example 3 is added to chicken fat to provide 40 mg of iron per 1000 g of fat. As a negative control, ferric sulfate is added to chicken fat to provide the same iron loading. Chicken fat without any added iron is used as a positive control.
The fat samples are heated to 100° C. and the lipid oxidation induction time is determined using a Rancimat. No difference in induction time between the fat fortified with the powder of example 3 and the positive control is determined. The induction time of the negative control is 30 to 40% less.
The procedure of example 8 is repeated except that fish oil is used in place of chicken fat. The results are similar.

[2] = tested on: weanling male Sprague-Dawley rats; assay: Iron bioavailability by hemoglobin repletion in anemic rats (slope-ratio); format: in vivo, rat
Experimental: Animals:—The animals used are weanling male Sprague-Dawley rats aged 3 weeks (IFFA-CREDO, L'Arbresle, France).
This diet is casein based and provides for the nutritional requirements of growing rats except for iron.
Diet 1:—The control diet supplemented with the complex of example 2 to provide 10 mg/kg iron.
Diet 2:—The control diet supplemented with the complex of example 2 to provide 20 mg/kg iron.
1) Hemoglobin analysis is performed by anaesthetizing the rats with isoflurane and then drawing a sample of 200 μL of blood from the orbital venous plexus. Blood hemoglobin level in the sample is determined by the cyanmethemoglobin method (Hb kit MPR 3, Bochringer Mannheim GmbH, Germany), using an automated instrument (Hemocue, Baumann-Medical SA, Wetzikon, Switzerland). Commercial quality control blood samples (Dia-HT Kontrollblut, Dia MED, Cressier, Switzerland) having a range of hemoglobin levels are measured with all hemoglobin determinations.
A multiple regression equation relates amounts of iron added to the hemoglobin levels. The equation provides one straight line per diet which intercepts at zero dose.
Procedure:—Rats are housed individually in polycarbonate cages, fitted with stainless steel grids. The animals are allowed free access to distilled water. […] Fresh diet is supplied daily. Spoiling of diet by rats is reduced by covering the diet with a grid.
After 24 days, hemoglobin and weight is determined. Fifty rats with hemoglobin levels between […] are randomized into 5 groups of 10 having approximately equal mean hemoglobin and body weight. Each group of animals is fed one of the experimental diets for 14 days. The rats are fed the diets ad libitum beginning with 20 g/day at day 0. The rats have free access to distilled water. Individual food consumption is measured daily. After 14 days, the rats are weighed and hemoglobin is determined.

[3] = diet with 10 mg/kg added Fe for 14 days
[4] = diet with 20 mg/kg added Fe for 14 days

Compound | lipid oxidation induction time results compared with those of example 8 [1] | Initial hemoglobin, mean (standard deviation) ([2]; baseline before diet with 10 mg/kg added Fe) | Initial hemoglobin, mean (standard deviation) ([2]; baseline before diet with 20 mg/kg added Fe) | Difference in hemoglobin (final minus initial), mean [2, 3] [g/dL] | Final hemoglobin, mean [2, 3] [g/dL] | Difference in hemoglobin (final minus initial), mean [2, 4] [g/dL] | Final hemoglobin, mean [2, 4] [g/dL]
O=S(=O)([O-])[O-].O=S(=O)([O-])[O-].O=S(=O)([O-])[O-].[Fe+3].[Fe+3] [ferric sulfate] | similar |  |  |  |  |  | 
O.O.O.O.O.O.O.O=S(=O)([O-])[O-].[Fe+2] [FeSO4.7H2O, ferrous sulfate heptahydrate] |  | 5.12 (0.41) g/dl | 5.12 (0.40) g/dl | 3.54 | 8.66 | 6.41 | 11.53
